melting point	SMILES
63.5 to 65 °C	COC(=O)Cc1cc(Br)c(S)c(Br)c1
149 to 150 °C	N#CC(S)(CCC(=O)O)C1=NCCc2ccccc21 (configuration not stated)
138 to 140 °C	CC(c1ccc(Br)cc1)N(O)C(N)=O (configuration not stated)
134 °C	C#CCN(c1ccc(C(=O)OC(C)(C)C)cc1)C1CCc2cc3nc(COC(=O)C(C)(C)C)[nH]c(=O)c3cc21 (racemic)
83 to 84 °C	OC(CCN1CCN(c2cccc(C(F)(F)F)c2)CC1)COc1ccccc1 (configuration not stated)
130 to 132 °C	BrC12CC3CC(CC(C3)C1=C1C3CC4CC(C3)CC1C4)C2
187 to 188 °C	O=c1ccn(CCO)c(C(O)c2ccc(F)cc2)c1O (configuration not stated)
66 to 67 °C	CCCCCCCCCCCCCCCCc1nc(N(C)C)nc(OC)c1Br
98 to 100 °C	COC(=O)CCCCNC(=O)[C@H](Cc1ccccc1)NC(=O)OC(C)(C)C
80 to 87 °C	CC(C)CCC(O)C(CC1CCCCC1)NC(=O)C(Cc1c[nH]cn1)N(C)C(=O)C(Cc1ccccc1)OC(=O)N(C)CCC(=O)N1CCOCC1 (configuration not stated)
57 to 60 °C	COC(=O)CSCc1cnc(OC)c([N+](=O)[O-])c1
104 to 107 °C	COc1ccc(C(=O)c2ccccn2)c(Cl)c1Cl
87.5 to 88.4 °C	COCCOc1ccc(CCCOC(=O)NS(=O)(=O)NCCOC(C)C)c(Oc2ncc(Cl)cc2Cl)c1
212 to 214 °C	O=c1cc(C(F)(F)F)c2c(O)cc(O)cc2o1
121 to 122 °C	Nc1cc(C(F)(F)F)ccc1N(N)C=O
102 to 104 °C	O=C(Nc1ccc(F)cc1)c1ccccc1F
79 to 80 °C	CCCCCCCCOc1cc2c(cc1/C(C)=C/c1ccc(C(=O)OC)cc1)C(C)(C)CCCS2(=O)=O
156 to 157 °C	Cc1noc(NC(=O)N2CCC(c3nc(-c4ccccc4)cs3)CC2)c1C
229 to 230 °C	Cc1cc(-c2nc3cccnn3c2-c2ccnc(NC(=O)NC3CCCCC3)c2)ccc1F
115 to 117 °C	Cc1ccc(CSc2nc3cscc3n2C(=O)OC(C)(C)C)nc1
169 °C	CN1CCC(Nc2nc3ccccc3n2Cc2cnccn2)CC1
233 °C	O=C(CCN1CCCC1)Nc1ccc2c(c1)C(=O)c1cc(NC(=O)CCN3CCCC3)ccc1C2=O
59 to 60 °C	O=C(OCc1ccccc1)[C@H](O)CCc1ccccc1
175 to 178 °C	CC1(C)N=C(c2ccc(N)cc2)CC1c1ccncc1 (configuration not stated)
163 °C	CCOc1nc(SC)nc(N2CCS(=O)CC2)c1C=O

SMILES	melting point
CC1N=C(c2ccccc2F)c2cc(Br)ccc2NC1=O (configuration not stated)	183 to 185 °C
CCCN1CC(CN2CC(=O)NC2=O)CC2c3cccc4[nH]cc(c34)CC21 (configuration not stated)	168 to 170 °C
